According to patent US20200179511A1, “BCMA-TARGETING AGENT, AND COMBINATION THERAPY WITH A GAMMA SECRETASE INHIBITOR” (Novartis AG, priority 2017, published 2020):

Assays:
shed/soluble BCMA = test: GSI inhibition of shed/soluble BCMA (sBCMA), ELISA of supernatants, 72 hours, serial dilutions (Example 2, FIG. 8, Table 3); format: cell-based, human; details: inhibition of BCMA shedding / enhancement of membrane BCMA
Experimental: Target human cancer cell lines expressing various levels of human BCMA (NCI-H929^[High], MM1S^[Med], U266B1^[low]) were all transduced to constitutively express luciferase, which is used to measure cell viability/survival with the BrightGlo reagent (Promega E2650). Target cells were plated 30,000 cells per well in a 96 well plate (Costar 3904) together with serial dilutions of a panel of gamma secretase inhibitors (Table 2). The plate was incubated at 37° C./5% CO2 for 72 hours, followed by measurements of cell viability (BrightGlo, Promega # E2650) according to vendor protocol. In a replicate set of assay plates, cell culture supernatants were collected by centrifugation and quantified for levels of soluble BCMA by ELISA (R&D Systems, DY193), and the remaining cells were stained with a PE conjugated BCMA antibody (clone 19F2, Biolegend 357504) and analyzed by flow cytometry for BCMA cell surface expression levels.
Raw OD450 values from the BCMA ELISA were plotted together with the mean fluorescent intensity values from flow cytometry analysis of cells stained with anti-BCMA antibody, and are shown for MM1S cells treated with the various GSIs in FIG. 8. Table 3 summarizes the EC50 results of all the GSIs on the three BCMA-expressing cell lines.

[1] = test system: BCMA cell surface expression; test: BCMA cell surface expression by flow cytometry (PE conjugated BCMA antibody) with or without GSI treatment (Example 1, FIG. 2); format: cell-based, human; details: BCMA-expressing multiple myeloma cell lines
Experimental: BCMA expressing cell lines were also treated overnight with and without GSIs. Cell culture supernatants were collected and quantified for levels of soluble BCMA by ELISA (R&D Systems, # DY193). Additionally, remaining cells were pelleted, stained with a PE conjugated BCMA antibody (clone 19F2, Biolegend #357504) and analyzed by flow cytometry for BCMA cell surface expression levels.
BCMA cell surface expression level was determined by flow cytometry on cell lines with or without GSI treatment.

Compound | efficacious concentrations among the panel of GSIs (rank of potency) (shed/soluble BCMA) | cell surface expression of BCMA [1]
C[C@H](c1ccc(F)cc1CCCC(=O)O)N(c1cc(F)ccc1F)S(=O)(=O)c1ccc(Cl)cc1 [BMS-299897] | least | –
C[C@H](NC(=O)[C@@H](O)c1cc(F)cc(F)c1)C(=O)N[C@@H]1C(=O)N(C)c2ccccc2-c2ccccc21 [LY-411575, (S)-2-((S)-2-(3,5-difluorophenyl)-2-hydroxyacetamido)-N—((S)-5-methyl-6-oxo-6,7-dihydro-5H-dibenzo[b,d]azepin-7-yl)propanamide] | most potent | strongly enhances
C[C@H](NC(=O)Cc1cc(F)cc(F)c1)C(=O)N[C@H](C(=O)OC(C)(C)C)c1ccccc1 [DAPT] | – | strongly enhances
